Measured values reported in patent US20050042716A1, “Allergen inactivating method, allergen inactivating filter, air treating apparatus, virus inactivating agent, virus inactivating method, virus inactivating filter, air conditoning unit and air conditioner” (priority 2003, published 2005).

Experiments:
[1] = test system: M13 phage; experiment: Inactivation test of M13 phage in solution (plaque count on E. coli JM109); format: cell-based; settings: 9 M urea, 1 hour
Experimental: This solution was added in the 1.5 mL volume tube to prepare a protease treatment solution. […] This solution was added in the 1.5 mL volume tube to prepare an urea treatment solution. […] This solution was added in the 1.5 mL volume tube to prepare an urea/protease treatment solution. Each solution was incubated at 37° C. for 1 hour. After the incubation, 600 μL of PEG solution (20% PEG6000, 2.5M NaCl) was added, and the solution was allowed to stand in ice for 3 hours. […] After incubating the medium at 37° C. for 5 hours, the number of the plaques appeared was counted to determine pfu. […] Into this solution in the 1.5 mL volume tube, 0, 0.08, 0.8 and 8 μL each of pfu protease (manufactured by Takara Bio Co.) solution was added. […] Into this solution in the 1.5 mL volume tube, 0, 0.08, 0.8 and 8 μL each of pfu protease (manufactured by Takara Bio Co.) solution was added. […] Each treatment solution was incubated at 37° C. for 1 hour. After the incubation, 600 μL of PEG solution (20% PEG6000, 2.5M NaCl) was added, and the solution was allowed to stand in ice for 3 hours. […] After incubating the medium at 37° C. for 5 hours, the number of the plaques appeared was counted to determine pfu. […] After the incubation, 600 μL of PEG solution (20% PEG, 2.5M NaCl) was added, and the solution was allowed to stand in ice for 3 hours. […] After incubating the medium at 37° C. for 5 hours, the number of the plaques appeared was counted to determine pfu for evaluating the infection ability. The inactivation ratio of M13 phage was calculated from the results in Table 10, and is shown in the graph in FIG.

[2] = test system: λ-phage; experiment: Inactivation test of λ-phage in solution (plaque count on E. coli XL1-Blue MRF′); format: cell-based
[3] = target: cedar antigen Cryj-1 (Cryptomeria japonica, UniProt P18632); experiment: Electrophoresis of treated cedar antigen Cryj-1; format: biochemical; settings: 10 μL 5 N HCL per 10 μL Cj-1 solution, 60° C., 60 minutes
[4] = target: cedar antigen Cryj-2 (Cryptomeria japonica, UniProt P43212); experiment: Electrophoresis of treated cedar antigen Cryj-2; format: biochemical; settings: 10 μL 5 N HCL per 10 μL Cj-2 solution, 60° C., 60 minutes
[5] = test system: mite allergen; experiment: Mite allergen inactivation in mite extract, detected with DaniScan; format: biochemical
[6] = target: Cj-1 allergen (Cryptomeria japonica, UniProt P18632); experiment: Electrophoresis and Western blotting with Cj-1 antibody; format: biochemical, cedar; settings: for denaturation of Cj-1 protein (Western band): 5 N HCl, 60° C., 60 minutes
[7] = test system: cedar extract; experiment: Electrophoresis of treated cedar extract (protein staining); format: biochemical
[8] = 37° C., 1 hour, pfu protease S final 2%, 9 M urea

Sequence of Cj-1 allergen (P18632 22-374): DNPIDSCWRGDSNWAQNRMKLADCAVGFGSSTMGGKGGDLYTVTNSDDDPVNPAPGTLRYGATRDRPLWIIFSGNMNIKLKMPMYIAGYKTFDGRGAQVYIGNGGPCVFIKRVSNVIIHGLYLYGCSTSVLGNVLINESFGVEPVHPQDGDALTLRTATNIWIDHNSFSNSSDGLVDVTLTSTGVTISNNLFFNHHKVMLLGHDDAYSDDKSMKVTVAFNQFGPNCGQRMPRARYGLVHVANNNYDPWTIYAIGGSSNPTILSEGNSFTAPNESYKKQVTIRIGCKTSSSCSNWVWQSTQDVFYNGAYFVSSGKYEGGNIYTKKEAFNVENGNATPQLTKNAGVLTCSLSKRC
Sequence of cedar antigen Cryj-2 (P43212 46-433): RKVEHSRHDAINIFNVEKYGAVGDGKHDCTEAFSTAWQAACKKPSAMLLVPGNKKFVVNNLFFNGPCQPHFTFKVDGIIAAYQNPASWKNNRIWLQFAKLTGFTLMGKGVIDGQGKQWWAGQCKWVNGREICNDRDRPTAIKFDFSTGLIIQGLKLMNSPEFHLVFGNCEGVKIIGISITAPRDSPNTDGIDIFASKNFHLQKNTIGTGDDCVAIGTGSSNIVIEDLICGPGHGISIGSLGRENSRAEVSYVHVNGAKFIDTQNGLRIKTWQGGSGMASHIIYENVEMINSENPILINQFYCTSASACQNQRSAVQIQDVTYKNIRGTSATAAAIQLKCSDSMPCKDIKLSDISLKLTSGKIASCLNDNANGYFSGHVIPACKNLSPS
Sequence of cedar antigen Cryj-1 (P18632 22-374): as the sequence (P18632 22-374) above

## NC(N)=O [Urea, urea]
[1]; 37° C.
  inactivation ratio of M13 phage: about 50%
[1]; protease concentration 0, 37° C.
  Infection ability of M13 phage: 6.3 × 10^9
[1]; 37° C., pfu protease S final 2%
  Infection ability of M13 phage: 1.1 × 10^10 pfu/mL
[2]; 3 M urea, 37° C., treatment time 0 min
  Infection ability of λ-phage: 9.4 × 10^7 pfu/ml
[2]; 3 M urea, 37° C., treatment time 15 min
  Infection ability of λ-phage: 1.5 × 10^8 pfu/ml
[2]; 3 M urea, 37° C., treatment time 60 min
  Infection ability of λ-phage: 1.1 × 10^8 pfu/ml
[2]; 3 M urea, irrespective of the treatment time
  inactivation of λ-phage (in words): not substantially inactivated
[2]; 9 M urea, 37° C., treatment time 0 min
  Infection ability of λ-phage: 4 × 10^6 pfu/ml
[2]; 9 M urea, 37° C., treatment time 0 min (Table 6)
  Infection ability of λ-phage by adding 9 M urea: 8.4 × 10^5 pfu/mL
[2]; 9 M urea, 37° C., treatment time 7.5 min
  Infection ability of λ-phage by adding 9 M urea: 0 pfu/mL
[2]; 9 M urea, 37° C., treatment time 15 min
  Infection ability of λ-phage: 0 pfu/ml
[2]; 9 M urea, 37° C., treatment time 15 min (Table 6)
  Infection ability of λ-phage by adding 9 M urea: 0 pfu/mL
[2]; 9 M urea, 37° C., treatment time 30 min
  Infection ability of λ-phage by adding 9 M urea: 0 pfu/mL
[2]; 9 M urea, 37° C., treatment time 60 min
  Infection ability of λ-phage: 0 pfu/ml
[2]; 9 M urea, 37° C., treatment time 60 min (Table 6)
  Infection ability of λ-phage by adding 9 M urea: 0 pfu/mL
[2]; 9 M urea, treatment time of 15 minutes or more
  inactivation of λ-phage (in words): completely inactivated
[2]; [8]
  Infection ability of λ-phage: 0 pfu/mL
  inactivation of λ-phage (in words): inactivated
[2]; immediately after contacting 9 M urea
  inactivation ratio of λ-phage: about 99.96%

## Cl [acid, hydrochloric acid]
[3]
  denaturation of Cj-1 protein (bands): most of the cedar allergen Cj-1 protein was denatured
[4]
  denaturation of Cj-2 protein (bands): most of the cedar allergen Cj-2 protein was denatured
[5]; 2.5 M hydrochloric acid, 60° C., 60 minutes
  mite allergen inactivation (DaniScan band): most of the allergen is inactivated
[6]; Cj-1 solution
  denaturation of Cj-1 protein (Western band): most of the cedar antigen Cj-1 protein was denatured
[6]; cedar extract
  denaturation of Cj-1 protein (Western band): most of the cedar antigen Cj-1 protein was denatured
[7]; 10 μL 5 N HCL per 10 μL cedar preparation, 60° C., 60 minutes
  denaturation of cedar proteins (bands): most of the proteins derived from cedar was denatured

## [Na+].[OH-] [alkali, sodium hydroxide]
[5]; 2.5 M sodium hydroxide, 40° C. and 60° C., 10 minutes
  mite allergen inactivation (DaniScan band): inactivated

B1: papain: purified edible papain manufactured by Nagase Chemtechs Co. (protein, UniProt P00784 134-345, looked up)
Papain: IPEYVDWRQKGAVTPVKNQGSCGSCWAFSAVVTIEGIIKIRTGNLNEYSEQELLDCDRRSYGCNGGYPWSALQLVAQYGIHYRNTYPYEGVQRYCRSREKGPYAAKTDGVRQVQPYNEGALLYSIANQPVSVVLEAAGKDFQLYRGGIFVGPCGNKVDHAVAAVGYGPNYILIKNSWGTGWGENGYIRIKRGTGNSYGVCGLYTSSFYPVKN
[6]; cedar extract, 3 μL (0.2 g/mL) papain, 40° C., 15 minutes
  inactivation of Cj-1 allergen (Western band): completely inactivated
[7]; 3 μL (0.2 g/mL) papain solution, 40° C., 15 minutes
  decomposition of cedar proteins (bands): most of the cedar proteins had been decomposed
